Assay results reported in patent publication US9422318B2, “Epoxyeicosatrienoic acid analogs and methods of making and using the same” (THE MEDICAL COLLEGE OF WISCONSIN, INC., priority 2011, dated 2016).
Like-named read-outs stand apart in the source and are kept apart here. Values belong to the compound of their own block, whether it stands above or below them.

What was measured:
bovine coronary artery = experiment: Vasorelaxant activity in bovine coronary artery rings; conditions: for Vascular Relax. % (10 μM): rings precontracted with U-46619, 100% relaxation = basal pre-U-46619 tension; for EC50: Bos taurus, bovine coronary artery rings precontracted with U-46619, read-out: Vascular Relax. EC50
Experimental: Vasorelaxant activity was measured in bovine coronary artery. Bovine hearts were obtained and the left anterior descending coronary artery was dissected and cleaned of connective tissue. Vessels of 1 mm diameter were cut into rings of 3 mm width as previously described (3, 27, 39). […] The vessels were suspended from a pair of stainless steel hooks in a 6-ml water jacketed organ chamber. […] One hook was anchored to a steel rod and the other hook to a force transducer (model FT-03C; Grass Instruments, West Warwick, R.I.). Tension of the vessel was measured by an ETH-400 bridge amplifier, and the data were acquired with a MacLab 8e analog-to-digital converter and MacLab software version 3.5.6 (AD Instruments, Milford, Mass.) and stored on a Macintosh computer for subsequent data analysis.
Basal tension was set at the length-tension maximum of 3.5 g and equilibrated for 1.5 h. KCl (40 mM) was added to the chamber until reproducible maximal contractions were maintained. […] Cumulative additions of compounds were added to the chamber. Between concentration-response curves, the chambers were rinsed with fresh Krebs buffer, 40 mM KCl was administered to determine the maximum contraction, and the vessels were rinsed. Consecutive concentration-response curves were performed with 14,15-EET followed by a concentration-response curve to a compound. The experiment was always repeated with the order of the agonists reversed. […] The relaxation was plotted versus compound concentration and the EC50 determined utilizing statistical software.

Human recombinant sEH = Human recombinant sEH (Homo sapiens (Human), UniProt P34913); experiment: Soluble epoxide hydrolase inhibition (PHOME fluorescent substrate); format: biochemical
Experimental: Compounds were tested for their ability to inhibit recombinant soluble epoxide hydrolase (sEH) protein. The assay utilizes (3-Phhenyl-oxiranyl)-acetic acid cyano-(6-methoxy-naphthalen-2-yl)-methyl ester (PHOME), a sensitive substrate for sEH that can be used to monitor the activity of both human and murine enzymes. […] Human recombinant sEH was incubated with substrate and compounds ranging in concentration from 0.1 to 1000 nM.

[1] = tested on: Spontaneously Hypertensive Rats (SHR); experiment: Telemetry blood pressure and heart rate in spontaneously hypertensive rats; format: in vivo, rat
Excerpt: To accurately detect changes in blood pressure and heart rate, telemetry transmitters (Data Sciences Inc., St. Paul, Minn.) were implanted in rats one week prior to the experimental period according to manufacturer's specifications while under pentobarbital anesthesia. In brief, an incision was made to expose the femoral artery that was occluded to allow insertion of the transmitter catheter. The catheter was secured in place with tissue glue and the transmitter body was sutured in place and the incision line was closed. Rats were allowed to recover from surgery and were returned to individual housing. A baseline arterial pressure was recorded for prior to the experimental period. Mean arterial pressure was continuously recorded throughout the experimental period.
Telemetry transmitters were implanted into male SHR as described. After the surgical recovery period, baseline mean arterial pressure was recorded. In this series of experiments, EET analogs were administered by osmotic pump (2 mg/d, i.p.) and blood pressure was continuously monitored.

[2] = tested on: cisplatin-induced nephrotoxicity in Wistar-Kyoto (WKY) rats; experiment: Cisplatin-induced nephrotoxicity in rats; format: in vivo, rat
Excerpt: Experiments were approved and carried out according to the guidelines of the Institutional Animal Care and Use Committee, Medical College of Wisconsin, Milwaukee, USA. Male Wistar-Kyoto (WKY) rats weighing 180-200 g (Charles River, Mass., USA). All animals were kept in a temperature-controlled environment with a 12-h light/dark cycle and were allowed free access to food and water at all times. An acclimatization period of 6 days was allowed for the rats before experimentation. The rats were assigned into four groups. […] Rats received drinking water ad libitum for seven days and on day 7 DMSO (Sigma Aldrich, St. Louis, Mo., USA) was administered (300-500 μl i.p.). […] These rats are pretreated with the EET analog […].) for seven days in drinking water and then on day 7 administered CP as a single injection (7 mg/kg i.p.) followed by another five days treatment with EET-A. […] One day before the rats were sacrificed, urine of each rat was collected over a 24-h period, and the volume was measured. Five days after CP or DMSO administration, rats were anesthetized for blood sample collection followed by euthanasia and tissue collection. Urine and plasma samples were kept frozen at -80° C. until analyzed. The kidneys were removed, washed with physiological saline and stored at -80° C. until used for RT-PCR analysis, thiobarbituric acid reactive substance (TBARS) measurement and caspase 3 activity assay. […] The levels of blood urea nitrogen (BUN) (BioAssay Systems, Hayward, Calif., USA) and serum creatinine (Cayman Chemical Company, Ann Arbor, Mich., USA) were measured spectrophotometrically using commercial kits. Urinary content of creatinine and protein were measured using commercial kits (Cayman Chemical Company, Ann Arbor, Mich., USA), and the activity of urinary N-acetyl-b-glucosaminidase (NAG) in the urine was measured by a kit from Diazyme (Diazyme Laboratories, Poway, Calif., USA). While urine content of kidney injury molecule-1 (KIM-1) was measured using ELISA (R&D Systems, Inc. Minneapolis, Minn., USA). Malondialdehyde (MDA) is a thiobarbituric acid reactive substance (TBARS) that is formed as an end-product of lipid peroxidation and serves as an important index of oxidative stress. […] Using a commercially available kit (Cayman Chemical Company, Ann Arbor, Mich., USA), MDA was measured spectrophotometrically after reaction with thiobarbituric acid. […] Louis, Mo., USA). Kidney homogenate was prepared with a lysis Buffer (50 mM HEPES, pH 7.4, with 5 mM CHAPS and 5 mM DTT). […] The caspase 3 activity is expressed as nmol of AMC/min/μL. Real-Time analysis was carried out to assess the expression of oxidative (gp91phox, NOX1, SOD1, SOD2, SOD3), inflammatory (TNF-α, IL-6, apoptotic (Bax, Bak, Bcl-2) and endoplasmic reticulum stress (GRP78, caspase 12) related genes in the kidney. Total RNA was isolated from kidney homogenate using TRIzol LS reagents (Invitrogen Life Technologies, Carlsbad, Calif., USA) according to the manufacturer's instructions. The isolated RNA was treated with RNase-free DNase (Invitrogen, Carlsbad, Calif., USA) to remove traces of genomic DNA contamination. The mRNA samples were quantified by spectrophotometry at 260 nm and 1 μg of total RNA was reverse-transcribed to cDNA using iScriptTM Select cDNA Synthesis Kit (Bio-Rad, Hercules, Calif., USA). The target gene expression was quantified by iScript One-Step RT-PCR Kit with SYBR green using MyiQTM Single Color Real-Time PCR Detection System (Bio-Rad Laboratories, Hercules, Calif., USA). Each amplified sample in all wells was analyzed for homogeneity using dissociation curve analysis using iQ5 Optical System Software, Version 2.1 (Bio-Rad Laboratories, Hercules, Calif., USA). […] In analyzing the relative expression of the target genes, the Ct values were normalized to a housekeeping gene (pgk1). Statistical analyses were carried out for at least 5-7 experimental samples in each experimental group. Primers used in this study were designed based on several earlier reports. […]

[3] = human recombinant sEH, PHOME substrate, 0.1 to 1000 nM, read-out: sEHi IC50

Human recombinant sEH, sequence (P34913 whole entry): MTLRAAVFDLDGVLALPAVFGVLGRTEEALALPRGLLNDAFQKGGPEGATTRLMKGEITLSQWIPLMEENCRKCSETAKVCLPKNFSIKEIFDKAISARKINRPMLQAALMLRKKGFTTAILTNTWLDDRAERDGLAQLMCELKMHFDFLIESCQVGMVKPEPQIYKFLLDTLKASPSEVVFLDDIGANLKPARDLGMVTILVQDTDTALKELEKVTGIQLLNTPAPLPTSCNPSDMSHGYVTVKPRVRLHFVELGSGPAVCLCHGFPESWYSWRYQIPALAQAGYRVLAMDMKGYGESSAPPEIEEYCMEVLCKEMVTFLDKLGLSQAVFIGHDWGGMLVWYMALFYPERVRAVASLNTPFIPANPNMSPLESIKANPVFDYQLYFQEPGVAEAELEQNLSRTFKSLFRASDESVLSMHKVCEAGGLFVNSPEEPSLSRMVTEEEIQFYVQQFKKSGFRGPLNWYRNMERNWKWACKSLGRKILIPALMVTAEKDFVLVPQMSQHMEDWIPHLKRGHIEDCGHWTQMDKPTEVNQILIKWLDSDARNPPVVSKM

SMILES: CCCCCNC(=O)NCCCC/C=C\CCCCCCC(=O)N[C@@H](CC(=O)O)C(=O)O (stereo in doubt) [Compound 7, (S)-2-(13-(3-n-Pentylureido)tridec-8(Z)-enamido)succinic acid]
Vascular Relax. % (10 μM) (bovine coronary artery): 91%

EC50 (bovine coronary artery): 2900 nM
SMILES: CCCCCCC(=O)N(CCCC/C=C\CCCCCCC(=O)OCCOCCOCCO)C(C)C [Compound 1, 2-(2-(2-Hydroxyethoxyl)ethoxy)ethyl 13-(N-isopropylheptanamido)tridec-8(Z)-enoate]
Vascular Relax. % (10 μM) (bovine coronary artery): 86%

EC50 (bovine coronary artery): 5100 nM
SMILES: CCCCCNC(=O)NCCCC/C=C\CCCCCCC(=O)OCCOCCOCCO [Compound 2, 2-(2-(2-Hydroxyethoxyl)ethoxy)ethyl 13-(3-n-pentylureido)tridec-8(Z)-enoate]
Vascular Relax. % (10 μM) (bovine coronary artery): 72%

EC50 (bovine coronary artery): 1500 nM
SMILES: CCCCNC(=O)C(=O)NCCCC/C=C\CCCCCCC(=O)OCCOCCOCCO [Compound 3, 2-(2-(2-Hydroxyethoxyl)ethoxy)ethyl13-(2-(n-butylamino)-2 oxoacetamido)tridec-8(Z)-enoate]
Vascular Relax. % (10 μM) (bovine coronary artery): 104%

SMILES: CCCCCNC(=O)NCCCC/C=C\CCCCOCC(=O)O [Compound 4, 2-(10-(3-n-Pentylureido)dec-5(Z)-enyloxy)acetic acid]
Vascular Relax. % (10 μM) (bovine coronary artery): 49%

IC50 (Human recombinant sEH; [3]): > 500 nM
SMILES: CCCCCCC(=O)N(CCCC/C=C\CCCCCCC(=O)NCC(=O)O)C(C)C [Compound 5, 2-(13-(N-Isopropylheptanamido)tridec-8(Z)-enamido)acetic acid]
Vascular Relax. % (10 μM) (bovine coronary artery): 95%

SMILES: CCCCCN(C)C(=O)N(C)CCCC/C=C\CCCCCCC(=O)NCC(=O)O [Compound 6, 2-(13-(1,3-Dimethyl-3-n-pentylureido)tridec-8(Z)-enamido)acetic acid]
Vascular Relax. % (10 μM) (bovine coronary artery): 92%

SMILES: CCCCCNC(=O)NCCCC/C=C\CCCCCCC(=O)NS(=O)(=O)c1ccccc1 [Compound 8, 13-(3-n-Pentylureido)-N-(phenylsulfonyl)tridec-8(Z)-enamide]
Vascular Relax. % (10 μM) (bovine coronary artery): 73%

SMILES: CCCCCNC(=O)NCCCC/C=C\CCCCCCC(=O)NS(C)(=O)=O [Compound 9, N-(Methylsulfonyl)-13-(3-n-pentylureido)tridec-8(Z)-enamide]
Vascular Relax. % (10 μM) (bovine coronary artery): 61%

SMILES: CCCCCNC(=O)NCCCC/C=C\CCCCCCP(=O)([O-])[O-].[Na+].[Na+] [Compound 10]
Vascular Relax. % (10 μM) (bovine coronary artery): 71%

SMILES: CCCCCNC(=O)NCCCC/C=C\CCCCCCS(=O)(=O)[O-].[Na+] [Compound 11]
Vascular Relax. % (10 μM) (bovine coronary artery): 63%

IC50 (Human recombinant sEH; [3]): > 500 nM
SMILES: CCCCCCC(=O)N(CCCC/C=C\CCCCCCc1nnn[nH]1)C(C)C [Compound 19]
Vascular Relax. % (10 μM) (bovine coronary artery): 74%

SMILES: CCCCCNC(=O)NCCCC/C=C\CCCCCCc1nnn[nH]1 [Compound 20]
heart rate ([1]; 2 mg/d i.p., vehicle 331±17.0): 325±11.0 BPM

SMILES: CCCCNC(=O)C(=O)NCCCC/C=C\CCCCCCc1nnn[nH]1 [Compound 21]
Vascular Relax. % (10 μM) (bovine coronary artery): 96%

SMILES: CCCCCNC(=O)NCCCC/C=C\CCCCCCCc1nnn[nH]1 [Compound 22, 1-(13-(1H-Tetrazol-5-yl)tridec-5(Z)-enyl)-3-n-pentylurea]
Vascular Relax. % (10 μM) (bovine coronary artery): 110%

SMILES: CCCCCNC(=O)NCCCC/C=C\CCCCCCc1noc(=O)[nH]1 [Compound 23]
Vascular Relax. % (10 μM) (bovine coronary artery): 89%

SMILES: CCCCCCC(=O)N(CCCC/C=C\CCCCCCC1=NOS(=O)N1)C(C)C (stereo not shown) [Compound 26]
blood pressure ([1]; 2 mg/d i.p. osmotic pump, after two weeks of treatment, vehicle 141±3.0): 150±5.0 mmHg

SMILES: CCCCCNC(=O)NCCCC/C=C\CCCCCCc1noc(=S)[nH]1 [Compound 28]
Vascular Relax. % (10 μM) (bovine coronary artery): 93%

SMILES: CCCCCNC(=O)NCCCC/C=C\CCCCCCc1nsc(=O)[nH]1 [Compound 29]
Vascular Relax. % (10 μM) (bovine coronary artery): 54%

SMILES: CCCCCCC(=O)N(CCCCCOc1cccc2sc(NC(C)=O)nc12)C(C)C [Compound 30, N-(5-(2-Acetamidobenzo[d]thiazol-4-yloxy)pentyl)-N-isopropylheptanamide]
IC50 (Human recombinant sEH; read-out: SEHi activity IC50): > 500 nM
IC50 (Human recombinant sEH; read-out: sEHi IC50): > 500 nM
Vascular Relax. % (10 μM) (bovine coronary artery): 96%
start of blood pressure lowering ([1]; effect maintained until end of two-week treatment): within four days

SMILES: CCCCCNC(=O)NCCCCCOc1cccc2sc(NC(C)=O)nc12 [Compound 31, N-(4-(5-(3-n-Pentylureido)pentyloxy)benzo[d]thiazol-2-yl)acetamide]
Vascular Relax. % (10 μM) (bovine coronary artery): 73%

IC50 (Human recombinant sEH; [3]): > 500 nM
SMILES: CCCCNC(=O)C(=O)NCCCCCOc1cccc2sc(NC(C)=O)nc12 [Compound 32, N^1-(5-(2-Acetamidobenzo[d]thiazol-4-yloxy)pentyl)-N^2-n-butyloxalamide]
Vascular Relax. % (10 μM) (bovine coronary artery): 96%

SMILES: CCCCCCC(=O)N(CCCCCOc1cccc2sc(NC(=O)C(C)(C)C)nc12)C(C)C [EET-B, N-Isopropyl-N-(5-(2-pivalamidobenzo[d]thiazol-4-yloxy)pentyl)heptanamide]
kidney TBARS formation ([2]; 10 mg/kg/d p.o., vehicle 16±2): 8 ± 1 µmol/g
reductions in renal mRNA expressions of inflammatory markers (TNF-α, IL-6, interleukin-1β) ([2]; cisplatin-administered rats): 40-60%
proteinuria ([2]; cisplatin-administered rats, vehicle 53±5): 32 ± 3 mg/day
reductions in the elevated levels of serum creatinine and BUN ([2]; five days after cisplatin, vs. vehicle): 30-50%
NAG ([2]; urinary, 10 mg/kg/d p.o., vehicle 3.0±0.6): 0.6±0.2 U/d
KIM-1 ([2]; urinary, 10 mg/kg/d p.o., vehicle 296±94): 57 ± 13 ng/day
